Series [1] concerns three-dimensional skin model (Test Skin LSE-002 or 003; Toyobo) treated with SDS. The series can be described thus: Skin roughness model: three-dimensional skin model defatted with SDS, cell viability by MTT (absorbance of formazan). Type of series: cell-based. The conditions noted are these: for cell viability (absorbance of formazan): dissolved in olive oil, added on Test Skin treated with 1% SDS, left overnight, MTT kit. For orientation: Formazan colour is commonly taken as a measure of viable cells.

A short description of series [2]: Dispersion stability test in water (absorbance at 650 nm). The series is classed as physicochemical. The note with it: FIG. 6; for change in turbidity of the water suspension: after 6 hours. The procedure:
MEL-B or MEL-C at a concentration of 10 mg/mL was added to water, stirred and suspended. Its absorbance at 650 nm was measured.

Entries after “also recorded” stand apart in the source; their conditions may differ.

As to mannosylerythritol lipid B [MEL-B], the “skin roughness improvement compared with MEL-A” value in series [1] (FIG. 4 legend, three-dimensional skin model treated with SDS, viability) is reported as “increased skin roughness improvement over MEL-A”. Besides, the “cell viability (absorbance of formazan)” value in series [1] is given as “increased in a MEL-B-concentration-dependent manner”. The “change in turbidity of the water suspension” value in series [2] is on record as “little observable change in turbidity”.

In the case of mannosylerythritol lipid C [MEL-C], in series [1], the “cell viability (absorbance of formazan)” value was “increased in a MEL-C-concentration-dependent manner”. The dispersion stability entry in series [2] (10 mg/mL in water, stirred and suspended, absorbance at 650 nm) is “particularly excellent in dispersion stability; also recorded: more excellent than MEL-A in water dispersion stability”. Moreover, the “change in turbidity of the water suspension” value in series [2] is reported as “little observable change in turbidity”.

Take mannosylerythritol lipid A [MEL-A]: the “cell viability (absorbance of formazan)” value in series [1] is “increased in a MEL-A-concentration-dependent manner”.

The values are drawn from patent US20110257116A1, “BIOSURFACTANT-CONTAINING SKIN CARE COSMETIC AND SKIN ROUGHNESS-IMPROVING AGENT” (National Institute Of Advanced Industrial Science And …, priority 2005, published 2011).
